In ChEMBL document CHEMBL4837228, “Generation and Biological Evaluation of Degraded Derivatives of the Three E/Z-Isomers of Yaku'amide B” (2021):

test system: MCF7; experiment: Growth inhibition of human MCF7 cells for 48 hrs by sulforhodamine B assay; assay type: functional

| GI50 [nM] | SMILES |
| --- | --- |
| 304 | CC/C(C)=C(\NC(=O)CNC(=O)C(C)(C)C(=O)[C@@H](C)CC(C)C)C(=O)N[C@@H](C)C(=O)N/C(C(=O)N[C@@H](C(=O)N[C@@H](C(=O)N[C@@H](C(=O)NCC(=O)N/C(C(=O)N[C@H](C)C(=O)N[C@@H](C(=O)N[C@H](C(=O)NC(C(=O)N[C@H](CN(C)C)C(C)C)=C(C)C)C(C)C)C(C)C)=C(\C)CC)C(C)(C)O)[C@@H](C)CC)C(C)C)=C(/C)CC |
| 47.7 | CC/C(C)=C(\NC(=O)[C@H](C)NC(=O)/C(NC(=O)CNC(=O)C(C)(C)C(=O)[C@@H](C)CC(C)C)=C(/C)CC)C(=O)N[C@@H](C(=O)N[C@@H](C(=O)N[C@@H](C(=O)N[C@H](C(=O)N/C(C(=O)N[C@H](C)C(=O)N[C@@H](C(=O)N[C@H](C(=O)NC(C(=O)N[C@H](CN(C)C)C(C)C)=C(C)C)C(C)C)C(C)C)=C(/C)CC)C(C)(C)O)C(C)(C)O)[C@@H](C)CC)C(C)C |
| 57.4 | CC/C(C)=C(\NC(=O)[C@H](C)NC(=O)/C(NC(=O)[C@@H](NC(=O)C(C)(C)C(=O)[C@@H](C)CC(C)C)[C@](C)(O)CC)=C(\C)CC)C(=O)N[C@@H](C(=O)N[C@@H](C(=O)N[C@@H](C(=O)N[C@H](C(=O)N/C(C(=O)N[C@H](C)C(=O)N[C@@H](C(=O)N[C@H](C(=O)NC(C(=O)N[C@H](CN(C)C)C(C)C)=C(C)C)C(C)C)C(C)C)=C(\C)CC)C(C)(C)O)C(C)(C)O)[C@@H](C)CC)C(C)C |
| 26.8 | CC/C(C)=C(\NC(=O)CNC(=O)C(C)(C)C(=O)[C@@H](C)CC(C)C)C(=O)N[C@@H](C)C(=O)N/C(C(=O)N[C@@H](C(=O)N[C@@H](C(=O)N[C@@H](C(=O)N[C@H](C(=O)N/C(C(=O)N[C@H](C)C(=O)N[C@@H](C(=O)N[C@H](C(=O)NC(C(=O)N[C@H](CN(C)C)C(C)C)=C(C)C)C(C)C)C(C)C)=C(\C)CC)C(C)(C)O)C(C)(C)O)[C@@H](C)CC)C(C)C)=C(/C)CC |
| 25.4 | CC/C(C)=C(\NC(=O)[C@@H](NC(=O)[C@H](NC(=O)[C@H](NC(=O)[C@H](NC(=O)/C(NC(=O)[C@H](C)NC(=O)/C(NC(=O)[C@@H](NC(=O)C(C)(C)C(=O)[C@@H](C)CC(C)C)[C@](C)(O)CC)=C(/C)CC)=C(/C)CC)C(C)C)[C@@H](C)CC)C(C)(C)O)C(C)(C)O)C(=O)N[C@H](C)C(=O)N[C@@H](C(=O)N[C@H](C(=O)NC(C(=O)N[C@H](CN(C)C)C(C)C)=C(C)C)C(C)C)C(C)C |
| 24.6 | CC/C(C)=C(\NC(=O)[C@H](C)NC(=O)/C(NC(=O)[C@@H](NC(=O)C(C)(C)C(=O)[C@@H](C)CC(C)C)[C@](C)(O)CC)=C(/C)CC)C(=O)N[C@@H](C(=O)N[C@@H](C(=O)N[C@@H](C(=O)N[C@H](C(=O)N/C(C(=O)N[C@H](C)C(=O)N[C@@H](C(=O)N[C@H](C(=O)NC(C(=O)N[C@H](CN(C)C)C(C)C)=C(C)C)C(C)C)C(C)C)=C(/C)CC)C(C)(C)O)C(C)(C)O)[C@@H](C)CC)C(C)C |
| 28.2 | CC/C(C)=C(\NC(=O)[C@@H](NC(=O)[C@H](NC(=O)[C@H](NC(=O)[C@H](NC(=O)/C(NC(=O)[C@H](C)NC(=O)/C(NC(=O)CNC(=O)C(C)(C)C(=O)[C@@H](C)CC(C)C)=C(/C)CC)=C(/C)CC)C(C)C)[C@@H](C)CC)C(C)(C)O)C(C)(C)O)C(=O)N[C@H](C)C(=O)N[C@@H](C(=O)N[C@H](C(=O)NC(C(=O)N[C@H](CN(C)C)C(C)C)=C(C)C)C(C)C)C(C)C |
| 18.2 | CC/C(C)=C(\NC(=O)[C@@H](NC(=O)[C@H](NC(=O)[C@H](NC(=O)[C@H](NC(=O)/C(NC(=O)[C@H](C)NC(=O)/C(NC(=O)[C@@H](NC(=O)C(C)(C)C(=O)[C@@H](C)CC(C)C)[C@](C)(O)CC)=C(\C)CC)=C(/C)CC)C(C)C)[C@@H](C)CC)C(C)(C)O)C(C)(C)O)C(=O)N[C@H](C)C(=O)N[C@@H](C(=O)N[C@H](C(=O)NC(C(=O)N[C@H](CN(C)C)C(C)C)=C(C)C)C(C)C)C(C)C |
